Laboratory results taken from US20240252546A1, “NEURITE OUTGROWTH PROMOTION KIT AND USE THEREFOR” (KEIO UNIVERSITY, priority 2021, published 2024).

How the values were obtained:
phosphorylated p38 = test: Immunostaining of phosphorylated p38 in treated neurospheres (Experimental Example 3); format: cell-based, human; conditions: 201B7 neurospheres; 10 μM DAPT, 1 μM Compound 34, 24 hours; vs control
Protocol: (§1) Neurospheres derived from 201B7 cells were treated with various γ-secretase inhibitors in the same manner as in Experimental Example 1. As the γ-secretase inhibitor, DAPT, Compound 34, L-685,458, LY411575, Sulindac, and Compound E were used at the same concentrations as in Experimental Example 1. Subsequently, each neurosphere was fixed with paraformaldehyde and subjected to immunostaining of phosphorylated p38.
FIG. 5 is a graph showing the results obtained by quantifying the amount of the phosphorylated p38 in the neurosphere which had been treated with each of the γ-secretase inhibitors. In FIG. 5, “Ctl” indicates the result obtained from the control, “DAPT” indicates the result obtained by the DAPT treatment, “C. 34” indicates the result obtained by Compound 34 treatment, “L-685” indicates the result obtained by the L-685,458 treatment, “LY” indicates the result obtained by the LY411575 treatment, “Suli” indicates the result obtained by the Sulindac treatment, and “Com. E” indicates the result obtained by the Compound E treatment.

[1] = system: nerve cells induced from neurospheres derived from 201B7 cells; test: Neurite outgrowth of nerve cells differentiated from γ-secretase inhibitor-treated neurospheres (Experimental Example 1); format: cell-based, human; conditions: for neurite outgrowth, Tau protein immunostaining / neurite outgrowth (length of the neurite), βIII-tubulin immunostaining: 201B7 neurospheres cultured 24 hours with inhibitor (10 μM DAPT, 1 μM Compound 34), differentiated 14 days; for neurite outgrowth (length of the neurite), βIII-tubulin immunostaining: vs control and other γ-secretase inhibitors
From the text: Various γ-secretase inhibitors were allowed to act on neurospheres derived from human iPS cells. Subsequently, each neurosphere was induced to differentiate into nerve cells, and the neurite outgrowth was examined. The following inhibitors were used as γ-secretase inhibitors: DAPT (CAS Number: 208255-80-5), Compound 34 (CAS Number: 564462-36-8), L-685,458 (CAS Number: 292632-98-5), LY411575 (CAS number: 209984-57-6), Sulindac (CAS number: 38194-50-2, which is also an anti-inflammatory drug), and Compound E (CAS number: 209986-17-4).
First, 201B7 cells, which are cells of a human iPS cell line, were differentiated into neurospheres. 3 μM SB431542 (Tocris Bioscience, catalog number: “301836-41-9”) and 150 nM LDN193189 (StemRD Inc., catalog number: “1062368-24-4”) were added to a culture medium of 201B7 cells, and the cells were treated for 6 days.
Subsequently, the cells were dissociated and seeded in a cell culture dish (product name: “ultralow-attachment culture dish”, Corning Incorporated) at a cell density of 1× 10^5 cells/mL in a nerve induction medium, and then cultured for 6 days in a hypoxic and moist environment (4% O2 and 5% CO2) to carry out differentiation into neurospheres.
The culture medium used as the nerve induction medium was a culture medium obtained by adding a 2% B27 supplement (without vitamin A, Thermo Fisher Scientific, Inc., catalog number: “17504-044”), 20 ng/ml of FGF2 (PeproTech, Inc.), 10 μM Y27632 (Sigma-Aldrich Co., LLC, catalog number: “146986-50-7”), 1 μM retinoic acid (RA, Sigma-Aldrich Co., LLC, catalog number: “R2625-1G”), 3 μM CHIR 99021 (ReproCELL Inc., catalog number: “04-0004”), and 10 μM SB431542 (Calbiochem, catalog number: “301836-41-9”), to an MHM medium of which the composition is shown in Table 1 below.
Subsequently, the formed neurospheres were dissociated into single cells, the single cells were passaged in a modified nerve induction medium and cultured for 6 days in a hypoxic environment (4% O2). The culture medium used as the modified nerve induction medium was a culture medium obtained by adding a 2% B27 supplement (without vitamin A, catalog number: “17504-044”, Thermo Fisher Scientific, Inc.), 20 ng/ml of FGF2 (PeproTech, Inc.), 10 μM Y27632 (catalog number: “146986-50-7”, Sigma-Aldrich Co., LLC), and 1 μM retinoic acid (RA, catalog number: “R2625-1G”, Sigma-Aldrich Co., LLC), to an MHM medium of which the composition is shown in Table 1 above.
Subsequently, neurospheres were cultured for 24 hours in the presence of each γ-secretase inhibitor. Each inhibitor was added to a culture medium of the neurosphere so that the final concentration was 10 μM for DAPT, 1 μM for Compound 34, 10 μM for L-685,458, 10 μM for LY411575, 10 μM for Sulindac, and 5 μM for Compound E. In addition, a control group cultured in the absence of a γ-secretase inhibitor was also prepared.
Subsequently, each neurosphere was seeded on a 48-well chamber slide (IWAKI & CO., LTD.) coated with poly-L-ornithine/fibronectin, cultured for 14 days in a culture medium containing no growth factor at 37° C. in an environment of 95% air and 5% CO2, and differentiated into nerve cells.
Subsequently, each of the obtained nerve cells was fixed with 4% paraformaldehyde in 0.1 M PBS, and each of βIII-tubulin, which is a nerve cell marker, and the Tau protein, which is frequently distributed in axons, was immunostained, and the length of the neurite was measured.
FIG. 2 is a graph in which the results of FIGS. 1(a) to 1(g) are quantified. […]

CDC25B = test: Expression level of CDC25B by RNA-seq (Experimental Example 4); format: cell-based, human; conditions: 201B7 neurospheres, vs control
From the text: FIG. 9 is a graph showing the results obtained by treating the neurosphere derived from 201B7 cells with each of DAPT and Compound 34, carrying out the RNA-seq analysis, and quantifying the expression level of CDC25B based on transcriptome data.

phosphorylated CDC25B = test: Immunostaining of phosphorylated CDC25B in treated neurospheres (Experimental Example 4); format: cell-based, human; conditions: 201B7 neurospheres; 10 μM DAPT, 1 μM Compound 34, 24 hours; vs control
Protocol: as §1, with “CDC25B.” for “p38.”
FIG. 8 is a graph showing the results obtained by quantifying the amount of the phosphorylated CDC25B in the neurosphere which had been treated with each of the γ-secretase inhibitors.

[2] = system: nerve cells induced to differentiate from a neurosphere; conditions: nerve cells from a neurosphere on which DAPT has been allowed to act; cited from earlier work
[3] = system: spinal cord injury in the chronic phase; conditions: DAPT used on a neurosphere, neurosphere then transplanted into the site of injury; cited from earlier work

Compound	amount of phosphorylated p38 in the neurosphere (phosphorylated p38)	neurite outgrowth, Tau protein immunostaining [1]	neurite outgrowth (length of the neurite), βIII-tubulin immunostaining [1]	concentration at which the neurite outgrowth-promoting effect is obtained ([1]; compared with DAPT)	expression level of CDC25B (CDC25B)	amount of phosphorylated CDC25B in the neurosphere (phosphorylated CDC25B)	neurite outgrowth [2]	phosphorylation of p38 MAPK [2]	treatment of spinal cord injury in the chronic phase [3]
O=C1Nc2ccccc2C(c2ccccc2)=N[C@@H]1NC(=O)[C@H](c1ccc(F)cc1)[C@@H](CO)c1ccc(F)c(F)c1 [Compound 34]	significantly increased	particularly promoted	particularly promoted	low concentration as compared with DAPT	slightly increased	significantly increased			
C[C@H](NC(=O)Cc1cc(F)cc(F)c1)C(=O)N[C@H](C(=O)OC(C)(C)C)c1ccccc1 [DAPT]	significantly increased	particularly promoted	particularly promoted		slightly increased	significantly increased	promoted	increased	can be treated
